This assay concerns atrophic retinal lesions in Stargardt disease patients. Nature of the assay: TEASE-1 growth rate of atrophic retinal lesions by fundus autofluorescence imaging. More on the design: relative slower growth rate of atrophic retinal lesions versus control / Percentage Slowing of Atrophic Retinal Lesion Growth Rate: concentration or dose not given beside the values. It counts as in vivo, human. The procedure:
The Tolerability and Effects of gildeuretinol acetate in Stargardt Disease (Clinical trial group 1, also known as TEASE-1) was a 24-month, multicenter, double-masked, placebo-controlled trial designed to evaluate the efficacy and safety of daily oral gildeuretinol acetate in slowing the growth of atrophic retinal lesions in Stargardt disease patients. The trial was conducted at multiple sites in the United States (NCT02402660).
Patients 12 years or older, clinically diagnosed with Stargardt disease, with at least one ABCA4 mutation, at least one eye presenting with well-demarcated areas of reduced fundus autofluorescence including retinal atrophic lesions, and with any visual acuity, were enrolled.
Patients were randomized to gildeuretinol acetate 14 mg capsules, gildeuretinol acetate 24 mg capsules, or placebo capsules, to be taken once daily for one year. After one year, 50% of randomly selected patients receiving placebo were crossed over in a 1:1 ratio to gildeuretinol acetate 14 mg capsules or gildeuretinol acetate 24 mg capsules for a second year.
Deidentified retinal images of patients not enrolled in the trial were included as a natural history cohort. This natural history cohort comprised patients diagnosed with Stargardt disease of any age, with two or more longitudinal fundus autofluorescence images taken at least four months apart over a maximum period of 2.5 years.
[…] retinal imaging comparing gildeuretinol acetate versus the untreated arm ([…]). Only well-delineated and homogeneous retinal atrophic lesions ≥0.2 mm^2 with a summed area ≥0.5 mm^2 were included in the primary analysis.
The primary endpoint analysis used a linear mixed-effect model (LMEM) with repeated measures, conferring a higher power to detect smaller effects. All observed data, including both eyes, were utilized. Treatment duration was computed as a continuous measure for each visit based on years since randomization. Adjustments for baseline retinal atrophy used the baseline atrophic retinal lesion size as a fixed effect in the LMEM. Additional fixed effects included treatment arm, treatment duration, and interaction between the treatment arm and treatment duration. Random effects included patient, eye, grader to adjust for correlation between eyes within a patient, graders' assessment of an eye, and observations of the same eye over time. A random effect slope term was added to the effect of treatment duration. Patients who crossed over to gildeuretinol acetate after year one were included in the untreated arm from baseline to year one, then in the gildeuretinol acetate arm from […] upon crossing over to gildeuretinol acetate. The full analysis set (FAS) comprised all randomized patients who received at least one dose of the study drug.
[…] All available data between 0 and 24 months was used to compute the slope of each segment. The primary efficacy endpoint was the slope of the second segment. No constraints were imposed on the Y-intercept. All growth rates were calculated on a per-year basis.
No imputations were made for missing data because the LMEM yields valid inferences under the assumption of a missing-at-random mechanism. The two-sided P-value of the primary efficacy endpoint was calculated using Kenward-Roger's method for handling denominator degrees of freedom and small samples. The goodness of fit of the linear mixed-effect model was provided as R-squared (R^2). Analyses were conducted in R (R Core Team, 2020). Prespecified, unadjusted sensitivity analyses of the primary efficacy endpoint included growth rates of untransformed areas of retinal atrophy and growth rates using a single-slope from baseline until the last available visit. Post-hoc unadjusted analyses were performed to evaluate the potential contribution of patient characteristics.

From patent US20260256728A1, “TREATMENT FOR ASYMPTOMATIC STARGARDT DISEASE PATIENTS” (priority 2024, published 2026) come the findings set out here.

As for `[2H]C([2H])([2H])C(/C=C/C=C(C)/C=C/C1=C(C)CCCC1(C)C)=C\CO` [Gildeuretinol, C20D3-retinol], the “Percentage Slowing of Atrophic Retinal Lesion Growth Rate” value (“Percentage Slowing” for short) came to 21% (Crossover patients: 12 months placebo vs. 12 months treatment); 21% (Excluding 2 natural history cases <18 years old, 9 natural histories >60 years old); 20% (Excluding 3 randomized patients with one confirmed mutation); 20% (Excluding 13 natural history cases without any confirmed ABCA4 mutations and 6 natural histories with one confirmed mutation); 20% (Excluding 16 natural histories with only two follow up time points); 30% (Excluding natural history, randomized patients only, one slope (mm^2)). Further, the “Percentage Slowing” value (Excluding natural history, randomized patients only, two slopes (mm^2)) was found to be 23%; the “Percentage Slowing” value (Using a single-slope from 0 to 24 months (mm^2)) is 31%; the “Percentage Slowing” value (Using untransformed areas of atrophic lesions (mm^2)) was determined as 28%.
